From patent US5217960A, “Erythromycin derivatives” (priority 1991, dated 1993)
≈ marks a conversion by molar mass, not a printed value. Where two headings read alike, the source gives them in different places.

Columns and labels:
Assay type in all cases: cell-based
[1] = test system: STREPTOCOCCUS BOVIS A5169; assay: In vitro antibacterial activity, agar dilution MIC; conditions: 24 h
[2] = test system: STAPHYLOCOCCUS EPIDERMIDIS 3519; assay: microbe, parasite or virus in culture
[3] = test system: ENTEROBACTER AEROGENES ATCC 13048; assay: In vitro antibacterial activity, agar dilution MIC; conditions: Klebsiella aerogenes, ATCC13048; E. aerogenes ATCC 13048; BHI agar, 35-37° C., 20 to 24 hours; read-out: MIC
[4] = test system: STREPTOCOCCUS PYOGENES 930 CONST; assay: In vitro antibacterial activity, agar dilution MIC; conditions: S. pyogenes 930 CONST, BHI agar, 35-37° C., 20 to 24 hours, read-out: MIC
[5] = test system: ESCHERICHIA COLI H560; assay: In vitro antibacterial activity, agar dilution MIC
[6] = test system: ACINETOBACTER CALCOACETICUS CMX 669; assay: In vitro antibacterial activity, agar dilution MIC; conditions: A. calcoaceticus CMX 669, BHI agar, 35-37° C., 20 to 24 hours
[7] = test system: PSEUDOMONAS CEPACIA 296I; assay: In vitro antibacterial activity, agar dilution MIC; conditions: Burkholderia cepacia; P. cepacia 296I; BHI agar, 35-37° C., 20 to 24 hours; read-out: MIC
[8] = test system: ESCHERICHIA COLI JUHL; assay: microbe, parasite or virus in culture
[9] = test system: PROVIDENCIA STUARTII CMX 640; assay: microbe, parasite or virus in culture
[10] = test system: PSEUDOMONAS AERUGINOSA A5007; assay: In vitro antibacterial activity, agar dilution MIC; conditions: P. aeruginosa A5007, BHI agar, 35-37° C., 20 to 24 hours
[11] = test system: STREPTOCOCCUS PYOGENES 2548 INDUC; assay: In vitro antibacterial activity, agar dilution MIC; conditions: 24 h
[12] = test system: STAPHYLOCOCCUS AUREUS ATCC 6538P; assay: In vitro antibacterial activity, agar dilution MIC; conditions: ATCC6538P
[13] = test system: STR[…] 508; assay: In vitro antibacterial activity, agar dilution MIC; conditions: Streptococcus agalactiae, 24 h
Method: (§1) Representative compounds of the present invention were assayed in vitro for antibacterial activity as follows: Twelve petri dishes containing successive aqueous dilutions of the test compound mixed with 10 ml of sterilized Brain Heart Infusion (BHI) agar (Difco 0418-01-5) were prepared. Each plate was inoculated with 1:100 (or 1:10 for slow-growing strains, such as Micrococcus and Streptococcus) dilutions of up to 32 different microorganisms, using a Steers replicator block. The inoculated plates were incubated at 35°-37° C. for 20 to 24 hours. In addition, a control plate, using BHI agar containing no test compound, was prepared and incubated at the beginning and end of each test.
(§2) An additional plate containing a compound having known susceptibility patterns for the organisms being tested and belonging to the same antibiotic class as the test compound was also prepared and incubated as a further control, as well as to provide test-to-test comparability. Erythromycin A was used for this purpose.
(§3) After incubation, each disk was read. The minimum inhibitory concentration (MIC) was defined as the lowest concentration of drug yielding no growth, a slight haze, or sparsely isolated colonies on the inoculum spot as compared to the growth control.

[14] = test system: STR[…] EES61; assay: In vitro antibacterial activity, agar dilution MIC; conditions: Streptococcus pyogenes, 24 h
Method: as §1, §2, §3

[15] = test system: ESCHERICHIA COLI DC-2; assay: In vitro antibacterial activity, agar dilution MIC
[16] = test system: STAPHYLOCOCCUS AUREUS 1775; assay: In vitro antibacterial activity, agar dilution MIC; conditions: S. aureus 1775, BHI agar, 35-37° C., 20 to 24 hours, read-out: MIC
[17] = test system: STAPHYLOCOCCUS AUREUS A5177; assay: In vitro antibacterial activity, agar dilution MIC; conditions: S. aureus A5177, BHI agar, 35-37° C., 20 to 24 hours, read-out: MIC
[18] = test system: STAPHYLOCOCCUS AUREUS NCTC 10649; assay: In vitro antibacterial activity, agar dilution MIC
[19] = test system: PSEUDOMONAS AERUGINOSA K799/WT; assay: In vitro antibacterial activity, agar dilution MIC; conditions: P. aeruginosa K799/WT, BHI agar, 35-37° C., 20 to 24 hours
[20] = test system: STAPHYLOCOCCUS AUREUS 45; assay: In vitro antibacterial activity, agar dilution MIC
[21] = test system: PSEUDOMONAS AERUGINOSA BMH10; assay: In vitro antibacterial activity, agar dilution MIC
[22] = test system: ESCHERICHIA COLI SS; assay: In vitro antibacterial activity, agar dilution MIC
[23] = test system: ESCHERICHIA COLI KNK 437; assay: microbe, parasite or virus in culture; conditions: E. coli KNK 437, BHI agar, 35-37° C., 20 to 24 hours
[24] = test system: STAPHYLOCOCCUS AUREUS CMX 553; assay: In vitro antibacterial activity, agar dilution MIC; conditions: S. aureus CMX 553, BHI agar, 35-37° C., 20 to 24 hours, read-out: MIC
[25] = test system: KLEBSIELLA PNEUMONIAE ATCC 8045; assay: In vitro antibacterial activity, agar dilution MIC
[26] = test system: EN[…] ATCC 8043; assay: In vitro antibacterial activity, agar dilution MIC; conditions: Enterococcus faecium, ATCC8043, 24 h
Method: as §1, §2
as §3, with “control. The results of this assay, shown below in Tables 1 and 2, support the conclusion that the compounds of the invention are effective antibacterial agents.” for “control.”

[27] = test system: M[…] ATCC 9341; assay: In vitro antibacterial activity, agar dilution MIC; conditions: Micrococcus luteus, ATCC9341, 24 h
Method: as §1, §2
as §3, with “control. The results of this assay, shown below in Tables 1 and 2, support the conclusion that the compounds of the invention are effective antibacterial agents.” for “control.”

[28] = test system: M[…] ATCC 4698; assay: In vitro antibacterial activity, agar dilution MIC; conditions: Micrococcus luteus, ATCC4698, 24 h
Method: as §1, §2
as §3, with “control. The results of this assay, shown below in Tables 1 and 2, support the conclusion that the compounds of the invention are effective antibacterial agents.” for “control.”

[29] = test system: PSEUDOMONAS AERUGINOSA K799/61; assay: In vitro antibacterial activity, agar dilution MIC
Method: as §1, §2
as §3, with “control. The results of this assay, shown below in Tables 1 and 2, support the conclusion that the compounds of the invention are effective antibacterial agents.” for “control.”

[30] = test system: STAPHYLOCOCCUS AUREUS 642A; assay: In vitro antibacterial activity, agar dilution MIC; conditions: S. aureus 642A, BHI agar, 35-37° C., 20 to 24 hours, read-out: MIC

`CC[C@H]1OC(=O)[C@H](C)[C@@H](O[C@H]2C[C@@](C)(OC)[C@@H](O)[C@H](C)O2)[C@H](C)[C@@H](O[C@@H]2O[C@H](C)C[C@H](N(C)C)[C@H]2O)[C@](C)(O)C[C@@H](C)[C@@H](N(C)C)[C@H](C)[C@@H](O)[C@@]1(O)CNC` [Compound 17, (9R)-9-deoxo-9-(N,N-dimethylamino)-21-(N-methylamino)-erythromycin A] was tested, and the MIC [1] was 0.78 µg/mL (≈ 0.985 µM), the MIC ([2]; S. epidermidis 3519, BHI agar, 35-37° C., 20 to 24 hours, read-out: MIC) was 12.5 µg/mL (≈ 15.8 µM) and the MIC [3] was 100 µg/mL (≈ 126 µM). The MIC [4] was greater than 100 µg/mL, the MIC ([5]; E. coli H560, BHI agar, 35-37° C., 20 to 24 hours, read-out: MIC) was 12.5 µg/mL (≈ 15.8 µM) and the MIC [6] was 100 µg/mL (≈ 126 µM). The MIC [7] was greater than 100 µg/mL, the MIC ([8]; 24 h) was 50 µg/mL (≈ 63.1 µM) and the MIC ([9]; 24 h) was greater than 100 µg/mL. For the same compound, the MIC [10] was greater than 100 µg/mL, the MIC [11] was 50 µg/mL (≈ 63.1 µM) and the MIC ([12]; S. aureus ATCC 6538P, BHI agar, 35-37° C., 20 to 24 hours, read-out: MIC) was 12.5 µg/mL (≈ 15.8 µM). It also gave an MIC [13] of 1.56 µg/mL (≈ 1.97 µM), an MIC [14] of 0.78 µg/mL (≈ 0.985 µM) and an MIC ([15]; 24 h) of 50 µg/mL (≈ 63.1 µM). It also gave an MIC [16] greater than 100 µg/mL, an MIC [17] greater than 100 µg/mL and an MIC ([18]; NCTC10649, 24 h) of 6.2 µg/mL (≈ 7.83 µM). The MIC [19] was greater than 100 µg/mL, the MIC ([20]; 24 h) was 6.2 µg/mL (≈ 7.83 µM) and the MIC ([21]; P. aeruginosa BMH10, BHI agar, 35-37° C., 20 to 24 hours, read-out: MIC) was 100 µg/mL (≈ 126 µM). It also gave an MIC ([22]; 24 h) of 0.78 µg/mL (≈ 0.985 µM), an MIC [23] of 25 µg/mL (≈ 31.6 µM) and an MIC [24] of 12.5 µg/mL (≈ 15.8 µM). The MIC ([25]; ATCC8045, 24 h) was 50 µg/mL (≈ 63.1 µM), the MIC [26] was 3.1 µg/mL (≈ 3.91 µM) and the MIC [27] was 1.56 µg/mL (≈ 1.97 µM). The MIC [28] was 1.56 µg/mL (≈ 1.97 µM) and the MIC ([29]; 24 h) was 3.1 µg/mL (≈ 3.91 µM).
Compound `CC[C@H]1OC(=O)[C@H](C)[C@@H](O[C@H]2C[C@@](C)(OC)[C@@H](O)[C@H](C)O2)[C@H](C)[C@@H](O[C@@H]2O[C@H](C)C[C@H](N(C)C)[C@H]2O)[C@](C)(O)C[C@@H](C)[C@@H](N(C)C)[C@H](C)[C@@H](O)[C@@]12CO2` [Compound 8, (9R)-9-deoxo-9-(N,N-dimethylamino)-12,21-epoxyerythromycin A] has an MIC [1] of 0.02 µg/mL (≈ 0.0263 µM), an MIC ([2]; 24 h) of 0.39 µg/mL (≈ 0.512 µM) and an MIC [3] greater than 100 µg/mL. For the same compound, the MIC [4] was greater than 100 µg/mL, the MIC ([5]; 24 h) was 25 µg/mL (≈ 32.9 µM) and the MIC [6] was 12.5 µg/mL (≈ 16.4 µM). It also gave an MIC [7] greater than 100 µg/mL, an MIC ([8]; E. coli JUHL, BHI agar, 35-37° C., 20 to 24 hours, read-out: MIC) of 100 µg/mL (≈ 131 µM) and an MIC ([9]; P. stuartii CMX 640, BHI agar, 35-37° C., 20 to 24 hours) greater than 100 µg/mL. The MIC [30] was 1.56 µg/mL (≈ 2.05 µM), the MIC [10] was greater than 100 µg/mL and the MIC [11] was 6.2 µg/mL (≈ 8.15 µM). It also gave an MIC ([12]; 24 h) of 0.78 µg/mL (≈ 1.02 µM), an MIC ([15]; E. coli DC-2, BHI agar, 35-37° C., 20 to 24 hours, read-out: MIC) of 50 µg/mL (≈ 65.7 µM) and an MIC [16] greater than 100 µg/mL. It also gave an MIC [17] of 50 µg/mL (≈ 65.7 µM), an MIC ([18]; NCTC10649, S. aureus NCTC 10649, BHI agar, 35-37° C., 20 to 24 hours, read-out: MIC) of 0.78 µg/mL (≈ 1.02 µM) and an MIC [19] greater than 100 µg/mL. For the same compound, the MIC ([20]; S. aureus 45, BHI agar, 35-37° C., 20 to 24 hours, read-out: MIC) was 0.78 µg/mL (≈ 1.02 µM), the MIC ([21]; 24 h) was greater than 100 µg/mL and the MIC ([22]; E. coli SS, BHI agar, 35-37° C., 20 to 24 hours, read-out: MIC) was 0.39 µg/mL (≈ 0.512 µM). The MIC [23] was 50 µg/mL (≈ 65.7 µM), the MIC ([25]; ATCC8045, K. pneumoniae ATCC 8045, BHI agar, 35-37° C., 20 to 24 hours, read-out: MIC) was 100 µg/mL (≈ 131 µM) and the MIC [26] was 0.02 µg/mL (≈ 0.0263 µM). The MIC [27] was 0.1 µg/mL (≈ 0.131 µM), the MIC [28] was 0.1 µg/mL (≈ 0.131 µM) and the MIC ([29]; P. aeruginosa K799/61, BHI agar, 35-37° C., 20 to 24 hours, read-out: MIC) was 12.5 µg/mL (≈ 16.4 µM).
